According to patent US20140187475A1, “Lantibiotic Compositions and Methods For Preventing or Treating Mastitis” (Medela Holding AG, priority 2012, published 2014):

System: bacteria
Experiment: antimicrobial activity of nisin preparations placed on a skin or agar surface
Assay type: cell-based
Excerpt: Most important in this embodiment is the principle that nisin must be placed in the external aqueous phase of this preparation. […] In an ointment preparation, it is retained by the lipid phase and fails to dissipate and kill bacteria.

For Nisin, the antimicrobial activity (nisin in an ointment preparation with little or no water) was “largely inactive” and the antimicrobial activity (nisin in the external aqueous phase of an oil in water emulsion, placed on a skin or agar surface) was “highly active”.
